Consider 44 substances from US11607446B2, “Personalized immunotherapy against several neuronal and brain tumors” (Immatics Biotechnologies GmbH, priority 2013, dated 2023).

The subject of assay [1] is CD8+ T cells. Description: In vitro immunogenicity of HLA-A*24 class I peptides: in vitro T-cell priming with aAPCs loaded with peptide/MHC complexes and anti-CD28 antibody, pMHC multimer readout. Particulars: for Wells: share of positive wells in the in vitro immunogenicity experiments. The class given is cell-based, human. The protocol:
In order to obtain information regarding the immunogenicity of the TUMAPs of the present invention, we performed investigations using an in vitro T-cell priming assay based on repeated stimulations of CD8+ T cells with artificial antigen presenting cells (aAPCs) loaded with peptide/MHC complexes and anti-CD28 antibody.
Isolated CD8+ lymphocytes or PBMCs were incubated until use in T-cell medium (TCM) consisting of RPMI-Glutamax (Invitrogen, Karlsruhe, Germany) supplemented with 10% heat inactivated human AB serum (PAN-Biotech, Aidenbach, Germany), 100 U/ml Penicillin/100 μg/ml Streptomycin (Cambrex, Cologne, Germany), 1 mM sodium pyruvate (CC Pro, Oberdorla, Germany), 20 μg/ml Gentamycin (Cambrex). 2.5 ng/ml IL-7 (PromoCell, Heidelberg, Germany) and 10 U/ml IL-2 (Novartis Pharma, Nurnberg, Germany) were also added to the TCM at this step. Generation of pMHC/anti-CD28 coated beads, T-cell stimulations and readout was performed in a highly defined in vitro system using four different pMHC molecules per stimulation condition and 8 different pMHC molecules per readout condition. All pMHC complexes used for aAPC loading and cytometric readout were derived from UV-induced MHC ligand exchange with minor modifications. In order to determine the amount of pMHC monomer obtained by exchange we performed streptavidin-based sandwich ELISAs according to (Rodenko et al., 2006). The purified co-stimulatory mouse IgG2a anti human CD28 Ab 9.3 (Jung et al., 1987) was chemically biotinylated using Sulfo-N-hydroxysuccinimidobiotin as recommended by the manufacturer (Perbio, Bonn, Germany). Beads used were 5.6 μm diameter streptavidin coated polystyrene particles (Bangs Laboratories, Illinois, USA).
800.000 beads/200 μl were coated in 96-well plates in the presence of 4×12.5 ng different biotin-pMHC, washed and 600 ng biotin anti-CD28 were added subsequently in a volume of 200 μl. Stimulations were initiated in 96-well plates by co-incubating 1×10^6 CD8+ T cells with 2×10^5 washed coated beads in 200 μl TCM supplemented with 5 ng/ml IL-12 (PromoCell) for 3-4 days at 37° C. Half of the medium was then exchanged by fresh TCM supplemented with 80 U/ml IL-2 and incubating was continued for 3-4 days at 37° C. This stimulation cycle was performed for a total of three times, with 12 individual wells per condition For the pMHC multimer readout using 8 different pMHC molecules per condition, a two-dimensional combinatorial coding approach was used as previously described (Andersen et al., 2012) with minor modifications encompassing coupling to 5 different fluorochromes. Finally, multimeric analyses were performed by staining the cells with Live/dead near IR dye (Invitrogen, Karlsruhe, Germany), CD8-FITC antibody clone SK1 (BD, Heidelberg, Germany) and fluorescent pMHC multimers. For analysis, a BD LSRII SORP cytometer equipped with appropriate lasers and filters was used. Peptide specific cells were calculated as percentage of total CD8+ cells. Evaluation of multimeric analysis was done using the FlowJo software (Tree Star, Oregon, USA). In vitro priming of specific multimer+ CD8+ lymphocytes was detected by comparison to irrelevant control stimulations.
Exemplary flow cytometry results after TUMAP-specific multimer staining for two peptides of the invention are shown in FIG. 4 together with corresponding negative controls.

For assay [2], the system named is CD8+ T cells. Description: In vitro immunogenicity of HLA-A*02 class I peptides: in vitro T-cell priming with aAPCs loaded with peptide/MHC complexes and anti-CD28 antibody, pMHC multimer readout. The assay is classed as cell-based, human. Particulars: HLA-A*02 peptides; for Donors / Donors (percentage in brackets): healthy donors; for Donors: specific multimer+ CD8+ T-cell line after in vitro stimulation; for Wells: in vitro stimulated wells of healthy donors' CD8+ T cells, specific multimer+ readout.

[3] abbreviates: share of positive donors in the in vitro immunogenicity experiments, given as a class symbol.

Turning to “VLPDADTLLHF (listed as Homo sapiens) [APC-001]”, the Donors result in assay [1] (setting [3]) is on record as “++ (20%-49 % = ++)”. Also, the Wells entry in assay [1] (given as a class symbol) was “+ (<20% = +)”.
Consider “RYSDGLLRF (listed as Homo sapiens) [LZTS1-001]”, for which the Donors result in assay [1] (setting [3]) was “++ (20%-49 % = ++)”. Moreover, the Wells entry in assay [1] (given as a class symbol) is “+ (<20% = +)”.
With “MYPYIYHVL (listed as Homo sapiens) [FAM120C-001]”, the Donors was 100% in assay [1] and “++++ (>70% = ++++)” in assay [1] (setting [3]). Moreover, the Wells result in assay [1] (given as a class symbol) is “++ (20%-49 % = ++)”.
Consider “RYIPLIVDI (listed as Homo sapiens) [ARHGAP21-001]”, for which the Donors result in assay [1] (setting [3]) is on record as “++ (20%-49 % = ++)”. Also, the Wells result in assay [1] (given as a class symbol) was “+ (<20% = +)”.
For “NYTSLLVTW (listed as Homo sapiens) [PTP-018]”, the Donors entry in assay [1] (setting [3]) is listed as “++++ (>70% = ++++)”. The Wells entry in assay [1] (given as a class symbol) is “+ (<20% = +)”.
Taken in the same sequence, the figures for “AYSDGHFLF (listed as Homo sapiens) [TENM4-001]” were “++ (20%-49 % = ++)” and “+ (<20% = +)”.
Take “QYVFIHDTL (listed as Homo sapiens) [PTP-015]”: the Donors entry in assay [1] (setting [3]) is “++ (20%-49 % = ++)”. Besides, in assay [1] (given as a class symbol), the Wells entry is reported as “+ (<20% = +)”.
For “KYFDKVVTL (listed as Homo sapiens) [KIF7-001]” the same measures were “++ (20%-49 % = ++)” and “+ (<20% = +)”.
For “PYNHQHEYF (listed as Homo sapiens) [FADS2-002]” the same measures were “++++ (>70% = ++++)” and “+ (<20% = +)”.
For “VYDTMIEKF (listed as Homo sapiens) [PTP-016]”, the Donors result in assay [1] (setting [3]) was “++ (20%-49 % = ++)”. Also, in assay [1] (given as a class symbol), the Wells entry is given as “+ (<20% = +)”.
Taken in the same sequence, the figures for “SYNPLWLRI (listed as Homo sapiens) [ASPM-002]” were “+++ (50%-70% = +++)” and “+ (<20% = +)”.
For “YYQIRSSQL (listed as Homo sapiens) [EXOC7-001]” the same measures were “++ (20%-49 % = ++)” and “+ (<20% = +)”.
In the case of “KYNEFSVSL (listed as Homo sapiens) [HEATR1-001]”, in assay [1] (setting [3]), the Donors result was “+++ (50%-70% = +++)”. Also, the Wells result in assay [1] (given as a class symbol) is given as “+ (<20% = +)”.
“AYPRLSLSF (listed as Homo sapiens) [GAB-001]”: in assay [1] (setting [3]), the Donors result is given as “++ (20%-49 % = ++)”. In addition, in assay [1] (given as a class symbol), the Wells entry is reported as “+ (<20% = +)”.
In the case of “TYVDSSHTI (listed as Homo sapiens) [VCAN-003]”, the Donors result in assay [1] (setting [3]) is “+++ (50%-70% = +++)”. Further, the Wells entry in assay [1] (given as a class symbol) is given as “+ (<20% = +)”.
For “TYIPPLLVAF (listed as Homo sapiens) [TMEM231-001]”, in assay [1] (setting [3]), the Donors entry was “+++ (50%-70% = +++)”. Further, in assay [1] (given as a class symbol), the Wells result was “+ (<20% = +)”.
For “IFTYIHLQL (listed as Homo sapiens) [LOC72839-001]” the same measures were “+++ (50%-70% = +++)” and “+ (<20% = +)”.
Taken in the same sequence, the figures for “YYPGVILGF (listed as Homo sapiens) [TMEM255A-001]” were “++ (20%-49 % = ++)” and “+ (<20% = +)”.
For “QYQIIMTMI (listed as Homo sapiens) [FADS2-003]” the same measures were “+++ (50%-70% = +++)” and “+ (<20% = +)”.
Regarding “IYGGHHAGF (listed as Homo sapiens) [OLIG2-001]”, the Donors result in assay [1] (setting [3]) is given as “++ (20%-49 % = ++)”. Moreover, in assay [1] (given as a class symbol), the Wells entry is “+ (<20% = +)”.
On to “PYLDKFFAL (listed as Homo sapiens) [DOCK7-003]”, for which the Donors result in assay [1] (setting [3]) is “++ (20%-49 % = ++)”. Further, the Wells result in assay [1] (given as a class symbol) is “+ (<20% = +)”.
For “NROB1-001 (AYLKGTVLF; listed as Homo sapiens)” the same measures were “++ (20%-49 % = ++)” and “+ (<20% = +)”.
For “RYGPQFTL (listed as Homo sapiens) [PCD-002]” the same measures were “++ (20%-49 % = ++)” and “+ (<20% = +)”.
Regarding “AYLIDIKTI (listed as Homo sapiens) [IFT17-001]”, the Donors entry in assay [1] (setting [3]) was “+++ (50%-70% = +++)”. Further, the Wells result in assay [1] (given as a class symbol) is recorded as “+ (<20% = +)”.
In the case of “TYTSYLDKF (listed as Homo sapiens) [MAPK6-001]”, the Donors entry in assay [1] (setting [3]) is reported as “++ (20%-49 % = ++)”. Besides, in assay [1] (given as a class symbol), the Wells result was “+ (<20% = +)”.
Regarding “KYFGGVLEYF (listed as Homo sapiens) [RHOBTB3-001]”, the Donors entry in assay [1] (setting [3]) is given as “++ (20%-49 % = ++)”. The Wells entry in assay [1] (given as a class symbol) is recorded as “+ (<20% = +)”.
Taken in the same sequence, the figures for “VYNLTQEFF (listed as Homo sapiens) [SMOX-001]” were “++ (20%-49 % = ++)” and “+ (<20% = +)”.
Consider “NYQDTIGRL (listed as Homo sapiens) [VIM-002]”, for which the Donors result in assay [1] (setting [3]) is given as “++ (20%-49 % = ++)”. In addition, the Wells entry in assay [1] (given as a class symbol) was “+ (<20% = +)”.
Regarding “NYTSLLVTW^+4 (listed as Homo sapiens) [PTP-019]”, the Donors result in assay [1] (setting [3]) is “++ (20%-49 % = ++)”. For the same substance, the Wells entry in assay [1] (given as a class symbol) is listed as “+ (<20% = +)”.
For “TYNYAVLKF (listed as Homo sapiens) [GPM-002]” the same measures were “+++ (50%-70% = +++)” and “+ (<20% = +)”.
As for “NYKDLNGNVF (listed as Homo sapiens) [SSR1-001]”, the Donors entry in assay [1] (setting [3]) is reported as “++ (20%-49 % = ++)”. In assay [1] (given as a class symbol), the Wells result is on record as “+ (<20% = +)”.
For “CRB 1-001 (SYFENVHGF; listed as Homo sapiens)” the same measures were “++ (20%-49 % = ++)” and “+ (<20% = +)”.
With “GVLENIFGV (listed as Homo sapiens) [PCNXL3-001]”, in assay [2], the Donors entry is listed as “++ (20%-49 % = ++)” and the Wells result is given as “+ (<20% = +)”.
For “KVFDEVIEV (listed as Homo sapiens) [GYG2-001]” the same measures were “++ (20%-49 % = ++)” and “+ (<20% = +)”.
Regarding “KLFDSDPITVTV (listed as Homo sapiens) [CLU-001]”, in assay [2], the Donors result is recorded as “++ (20%-49 % = ++)” and the Wells result is “+ (<20% = +)”.
As to “EILDYIYEV (listed as Homo sapiens) [ASIC4-001]”, in assay [2], the Donors result was “++ (20%-49 % = ++)” and the Wells result is listed as “+ (<20% = +)”.
For “RLISKFDTV (listed as Homo sapiens) [EIF4E-001]” the same measures were “+++ (50%-70% = +++)” and “+ (<20% = +)”.
Take “VLCGPPPAV (listed as Homo sapiens) [NC AN-001]”: in assay [2], the “Donors (percentage in brackets)” value amounted to 100%, the Donors result is “++++ (>70% = ++++)” and the Wells result is “+ (<20% = +)”.
Consider “TMMSRPPVL (listed as Homo sapiens) [WLS-002]”, for which, in assay [2], the Donors entry is given as “+++ (50%-70% = +++)” and the Wells entry is “+ (<20% = +)”.
For “GLMEKIKEL (listed as Homo sapiens) [CPT1C-001]” the same measures were “++ (20%-49 % = ++)” and “+ (<20% = +)”.
For “AVAPGPWKV (listed as Homo sapiens) [MAGI2-001]” the same measures were “++ (20%-49 % = ++)” and “+ (<20% = +)”.
Taken in the same sequence, the figures for “FLVDGSWSI (listed as Homo sapiens) [COL20-001]” were “++ (20%-49 % = ++)” and “+ (<20% = +)”.
As to “ALAFKLDEV (listed as Homo sapiens) [SLC10A4-001]”, in assay [2], the Donors result is “+++ (50%-70% = +++)” and the Wells entry was “++ (20%-49 % = ++)”.
Turning to “GLDPSSGAIHV (listed as Homo sapiens) [PCDHGC5-001]”, in assay [2], the “Donors (percentage in brackets)” value stood at 100%, the Donors result is listed as “++++ (>70% = ++++)” and the Wells result is listed as “+ (<20% = +)”.
